From patent US9023789B2, “Amylin analogs and pharmaceutical compositions thereof” (Novo Nordisk A/S, priority 2012, dated 2015) come the findings set out here.

In brackets after ≈: the same amount, converted by molar mass. Like-named read-outs stand apart in the source and are kept apart here. Numbered stars: 1 amine (or outer) side, 2 acyl side, 3 side chain; on linkers, the order of the positions; unused ones are H or OH. Bridge positions count the residues as written; N and C are the ends. Side chains are listed from the residue outwards. Peptide text beside a SMILES is read from it. * marks the point of attachment. C20 diacid = O=C(O)CCCCCCCCCCCCCCCCCCC(=O)*; γGlu = O=C(O)[C@H](CCC(=O)[*:2])N[*:1]; AEEA = NCCOCCOCC(=O)O

A short description of data set [1]: ASSAY (IV) determination of solubility. It is filed as physicochemical. In a few lines: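 Solubility measured by UPLC of supernatant after centrifugation, following 18 h at room temperature. Peptide ([…] in water) was diluted 1:1 into 100 mM glycylglycine (pH 3.0, 4.0, 5.0) or bistrispropane (pH 6.0-8.0).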
Data set [2] in a line: ASSAY (III) ThT fibrillation assay for physical stability. It is filed as physicochemical. The method, boiled down: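 Physical stability scored by ThT fluorescence (444 nm excitation, 485 nm emission) tracked every 20 min during 37 °C incubation with 960 rpm shaking, ThT at 1 μM final. Values are replicate means with SD at chosen times; HPLC against pramlintide standard gives initial and post-assay soluble concentrations.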

A further data set has as its system Sprague Dawley (SD) rats. In words: ASSAY (I) efficacy testing on appetite (food intake) using an ad libitum fed rat model. Conditions: rat. It is filed as in vivo. The method, boiled down:
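Individual food consumption was logged each hour up to 7 h and again at 24 h, occasionally 48 h, with Grubbs-test outliers removed. Each 200–250 g Sprague Dawley rat, free-feeding in its home cage under reversed lighting, received a single ip, po or sc dose of 0.01–3 mg/kg at lights-off, alongside a vehicle group.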

[3] abbreviates: bistrispropane buffer, pH 6.5, read-out: Solubility pH 6.5 Concentration.
[4] abbreviates: bistrispropane buffer, pH 7.5, read-out: Solubility pH 7.5 Concentration.
The mark [5] stands for this setting: bistrispropane buffer, pH 6.0, read-out: Solubility pH 6.0 Concentration.
[6] abbreviates: bistrispropane buffer, pH 7.0, read-out: Solubility pH 7.0 Concentration.
[7] abbreviates: bistrispropane buffer, pH 8.0, read-out: Solubility pH 8.0 Concentration.
[8] abbreviates: glycylglycine buffer, pH 3.0, read-out: Solubility pH 3.0 Concentration.
Where [9] appears, read: glycylglycine buffer, pH 4.0, read-out: Solubility pH 4.0 Concentration.
The mark [10] stands for this setting: glycylglycine buffer, pH 5.0, read-out: Solubility pH 5.0 Concentration.

For `CC[C@H](C)[C@H](NC(=O)[C@H](C)NC(=O)CNC(=O)[C@H](Cc1ccccc1)NC(=O)[C@H](CC(N)=O)NC(=O)[C@@H]1CCCN1C(=O)[C@H](CO)NC(=O)[C@H](CO)NC(=O)[C@H](Cc1c[nH]cn1)NC(=O)[C@H](CCCNC(=N)N)NC(=O)[C@H](CC(C)C)NC(=O)[C@H](Cc1ccccc1)NC(=O)[C@H](CCC(=O)O)NC(=O)[C@H](C)NC(=O)[C@H](CC(C)C)NC(=O)[C@H](CCCNC(=N)N)NC(=O)[C@H](CCC(N)=O)NC(=O)[C@@H](NC(=O)[C@H](C)NC(=O)[C@@H]1CSSC[C@H](NC(=O)[C@@H](N)CCCCNC(=O)CC[C@H](NC(=O)CCCCCCCCCCCCCCCCCCC(=O)O)C(=O)O)C(=O)N[C@@H](CC(N)=O)C(=O)N[C@@H]([C@@H](C)O)C(=O)N[C@@H](C)C(=O)N[C@@H]([C@@H](C)O)C(=O)N1)[C@@H](C)O)C(=O)N1CCC[C@H]1C(=O)N[C@@H](CO)C(=O)N[C@@H](CO)C(=O)N[C@H](C(=O)N[C@@H](CC(N)=O)C(=O)N[C@H](C(=O)NCC(=O)N1CCC[C@H]1C(=O)N[C@@H](Cc1c[nH]cn1)C(=O)N[C@H](C(=O)N[C@@H](Cc1ccc(O)cc1)C(N)=O)[C@@H](C)O)C(C)C)[C@@H](C)O` [Example 118] (H-K([γGlu-C20 diacid])CNTATCATQRLAEFLRHSSPNFGAIPSSTNVGPHTY-NH2; disulfide 2-7), the solubility at 18 h in data set [1] (setting [3]), in data set [1] (setting [4]), in data set [1] (setting [5]), in data set [1] (setting [6]), in data set [1] (setting [7]) and in data set [1] (setting [8]) was no less than 200 µM each time. The solubility at 18 h in data set [1] (setting [9]) and in data set [1] (setting [10]) was no less than 200 µM throughout. Further, the “ThT pH 4.0 lag time (h)” value in data set [2] is 45 h. Besides, the “Food intake reduction 0-24 h 3 nmol/kg (%)” value in the data set with Sprague Dawley (SD) rats (3 nmol/kg, 0-24 h) amounted to 43%. Moreover, the “Food intake reduction 24-48 h 3 nmol/kg (%)” value with Sprague Dawley (SD) rats (3 nmol/kg, 24-48 h) amounted to 1%. In addition, in the data set on Sprague Dawley (SD) rats (0-24 h), the “Food intake reduction 0-24 h 30 nmol/kg (%)” value is 77%. The “Food intake reduction 24-48 h 30 nmol/kg (%)” value in the data set on Sprague Dawley (SD) rats (24-48 h) was 30%.
Regarding `CC[C@H](C)[C@H](NC(=O)[C@H](C)NC(=O)CNC(=O)[C@H](Cc1ccccc1)NC(=O)[C@H](CC(N)=O)NC(=O)[C@@H]1CCCN1C(=O)[C@H](CO)NC(=O)[C@H](CO)NC(=O)[C@H](Cc1c[nH]cn1)NC(=O)[C@H](CCCNC(=N)N)NC(=O)[C@H](CC(C)C)NC(=O)[C@H](Cc1ccccc1)NC(=O)[C@H](CCC(=O)O)NC(=O)[C@H](C)NC(=O)[C@H](CC(C)C)NC(=O)[C@H](CCCNC(=N)N)NC(=O)[C@H](CCC(N)=O)NC(=O)[C@@H](NC(=O)[C@H](C)NC(=O)[C@@H]1CSSC[C@H](NC(=O)[C@@H](N)CCCCNC(=O)CC[C@H](NC(=O)CC[C@H](NC(=O)CCCCCCCCCCCCCCCCCCC(=O)O)C(=O)O)C(=O)O)C(=O)N[C@@H](CC(N)=O)C(=O)N[C@@H]([C@@H](C)O)C(=O)N[C@@H](C)C(=O)N[C@@H]([C@@H](C)O)C(=O)N1)[C@@H](C)O)C(=O)N1CCC[C@H]1C(=O)N[C@@H](CO)C(=O)N[C@@H](CO)C(=O)N[C@H](C(=O)N[C@@H](CC(N)=O)C(=O)N[C@H](C(=O)NCC(=O)N1CCC[C@H]1C(=O)N[C@@H](Cc1c[nH]cn1)C(=O)N[C@H](C(=O)N[C@@H](Cc1ccc(O)cc1)C(N)=O)[C@@H](C)O)C(C)C)[C@@H](C)O` [Example 124] (H-K([γGlu-γGlu-C20 diacid])CNTATCATQRLAEFLRHSSPNFGAIPSSTNVGPHTY-NH2; disulfide 2-7 (inferred)), the solubility at 18 h in data set [1] (setting [3]) is no less than 200 µM; in data set [1] (setting [4]), no less than 200 µM; in data set [1] (setting [5]) it was no less than 200 µM; in data set [1] (setting [6]) it was no less than 200 µM; in data set [1] (setting [7]), 165 µM (≈ 752 µg/mL); in data set [1] (setting [8]), no less than 200 µM. In addition, the solubility at 18 h in data set [1] (setting [9]) and in data set [1] (setting [10]) was no less than 200 µM each time. Moreover, in data set [2], the “ThT pH 4.0 lag time (h)” value was determined as 45 h. In the data set with Sprague Dawley (SD) rats (0-24 h), the “Food intake reduction 0-24 h 30 nmol/kg (%)” value is given as 73%. In the data set with Sprague Dawley (SD) rats (24-48 h), the “Food intake reduction 24-48 h 30 nmol/kg (%)” value was 38%.
Consider `CC[C@H](C)[C@H](NC(=O)[C@H](C)NC(=O)CNC(=O)[C@H](Cc1ccccc1)NC(=O)[C@H](CC(N)=O)NC(=O)[C@@H]1CCCN1C(=O)[C@H](CO)NC(=O)[C@H](CO)NC(=O)[C@H](Cc1c[nH]cn1)NC(=O)[C@H](CCCNC(=N)N)NC(=O)[C@H](CC(C)C)NC(=O)[C@H](Cc1ccccc1)NC(=O)[C@H](CCC(=O)O)NC(=O)[C@H](C)NC(=O)[C@H](CC(C)C)NC(=O)[C@H](CCCNC(=N)N)NC(=O)[C@H](CCC(N)=O)NC(=O)[C@@H](NC(=O)[C@H](C)NC(=O)[C@@H]1CSSC[C@H](NC(=O)[C@@H](N)CCCCNC(=O)CC[C@H](NC(=O)CC[C@H](NC(=O)CCCCCCCCCCCCCCCCCCC(=O)O)C(=O)O)C(=O)O)C(=O)N[C@@H](CC(N)=O)C(=O)N[C@@H]([C@@H](C)O)C(=O)N[C@@H](C)C(=O)N[C@@H]([C@@H](C)O)C(=O)N1)[C@@H](C)O)C(=O)N1CCC[C@H]1C(=O)N[C@@H](CO)C(=O)N[C@@H](CO)C(=O)N[C@H](C(=O)N[C@@H](CC(N)=O)C(=O)N[C@H](C(=O)NCC(=O)N1CCC[C@H]1C(=O)N[C@@H](CCCNC(=N)N)C(=O)N[C@H](C(=O)N[C@@H](Cc1ccc(O)cc1)C(N)=O)[C@@H](C)O)C(C)C)[C@@H](C)O` [Example 110] (H-K([γGlu-γGlu-C20 diacid])CNTATCATQRLAEFLRHSSPNFGAIPSSTNVGPRTY-NH2; disulfide 2-7), for which the solubility at 18 h is no less than 200 µM in data set [1] (setting [3]); 184 µM (≈ 842 µg/mL) in data set [1] (setting [4]); no less than 200 µM in data set [1] (setting [5]); no less than 200 µM in data set [1] (setting [6]); 166 µM (≈ 760 µg/mL) in data set [1] (setting [7]); no less than 200 µM in data set [1] (setting [8]). Also, the solubility at 18 h in data set [1] (setting [9]) and in data set [1] (setting [10]) was no less than 200 µM each time. In data set [2], the “ThT pH 4.0 lag time (h)” value came to 17 h. Also, the “Food intake reduction 0-24 h 30 nmol/kg (%)” value in the data set on Sprague Dawley (SD) rats (0-24 h) was 68%. Besides, the “Food intake reduction 24-48 h 30 nmol/kg (%)” value in the data set on Sprague Dawley (SD) rats (24-48 h) stood at 31%.
For the compound `CC[C@H](C)[C@H](NC(=O)[C@H](C)NC(=O)CNC(=O)[C@H](Cc1ccccc1)NC(=O)[C@H](CC(N)=O)NC(=O)[C@@H]1CCCN1C(=O)[C@H](CO)NC(=O)[C@H](CO)NC(=O)[C@H](Cc1c[nH]cn1)NC(=O)[C@H](CCCNC(=N)N)NC(=O)[C@H](CC(C)C)NC(=O)[C@H](Cc1ccccc1)NC(=O)[C@H](CC(N)=O)NC(=O)[C@H](C)NC(=O)[C@H](CC(C)C)NC(=O)[C@H](CCCNC(=N)N)NC(=O)[C@H](CCC(N)=O)NC(=O)[C@@H](NC(=O)[C@H](C)NC(=O)[C@@H]1CSSC[C@H](NC(=O)[C@H](CCCNC(=N)N)NC(=O)[C@@H](N)CCCCNC(=O)COCCOCCNC(=O)CC[C@H](NC(=O)CCCCCCCCCCCCCCCCCCC(=O)O)C(=O)O)C(=O)N[C@@H](CC(N)=O)C(=O)N[C@@H]([C@@H](C)O)C(=O)N[C@@H](C)C(=O)N[C@@H]([C@@H](C)O)C(=O)N1)[C@@H](C)O)C(=O)N1CCC[C@H]1C(=O)N[C@@H](CO)C(=O)N[C@@H](CO)C(=O)N[C@H](C(=O)N[C@@H](CC(N)=O)C(=O)N[C@H](C(=O)NCC(=O)N[C@@H](CO)C(=O)N[C@@H](Cc1c[nH]cn1)C(=O)N[C@H](C(=O)N[C@@H](Cc1ccc(O)cc1)C(N)=O)[C@@H](C)O)C(C)C)[C@@H](C)O` [Example 45] (H-K([AEEA-γGlu-C20 diacid])RCNTATCATQRLANFLRHSSPNFGAIPSSTNVGSHTY-NH2; disulfide 3-8 (inferred)), the solubility at 18 h is no less than 200 µM in data set [1] (setting [3]); no less than 200 µM in data set [1] (setting [4]); no less than 200 µM in data set [1] (setting [5]); no less than 200 µM in data set [1] (setting [6]); 110 µM (≈ 518 µg/mL) in data set [1] (setting [7]); no less than 200 µM in data set [1] (setting [8]). Further, the solubility at 18 h in data set [1] (setting [9]) and in data set [1] (setting [10]) was no less than 200 µM in each case. Moreover, in data set [2], the “ThT pH 4.0 lag time (h)” value turned out to be 45 h. Moreover, the “Food intake reduction 0-24 h 30 nmol/kg (%)” value in the data set with Sprague Dawley (SD) rats (0-24 h) is listed as 27%. In addition, the “Food intake reduction 24-48 h 30 nmol/kg (%)” value in the data set with Sprague Dawley (SD) rats (24-48 h) is recorded as 3%.
